Measurements: patent publication US8088796B2, “Triamine derivative” (Daiichi Sankyo Company, Limited, priority 2005, dated 2012)
Structures can show the parent of a compound that is named as a salt.

Columns and labels:
[1] = Test for oral administration (plasma concentration); format: in vivo; conditions: 1 mg/kg, monkey, fasted, 1 mg/2 mL/kg as free form in 0.5% methyl cellulose, plasma 0.5-24 h, HPLC/MS/MS
Procedure: Test for Oral Administration
To a monkey which had been fasted for over 15 hours, each test compound was orally administered in a free form at a dose of 1 mg/2 mL/kg. The test compound was dissolved or suspended in a 0.5% methyl cellulose solution. Before and 0.5, 1, 2, 4, 8 and 24 hours after the administration, the blood was collected at a ratio of 9 volumes to 1 volume of […] (total 1 ml). The blood was centrifuged (3000 rpm, 10 minutes, 4° C.), and the plasma was collected by separation. The separated plasma was pre-treated, and was subjected to measurement with HPLC/MS/MS, to calculate the plasma concentration from the areas under peak of the internal standard material and the test compound given by SRM chromatography using a calibration curve.

human FXa = target: T1, human FXa (Homo sapiens, UniProt P00742); experiment: Determination of human FXa inhibitory effect (IC50 value); format: biochemical; conditions: substrate S-2222, absorbance at 405 nm, room temperature, read-out: FXaIC50
T1 construct: purchased Enzyme Research Laboratories, Inc
T1 sequence (P00742 235-488 limits assumed): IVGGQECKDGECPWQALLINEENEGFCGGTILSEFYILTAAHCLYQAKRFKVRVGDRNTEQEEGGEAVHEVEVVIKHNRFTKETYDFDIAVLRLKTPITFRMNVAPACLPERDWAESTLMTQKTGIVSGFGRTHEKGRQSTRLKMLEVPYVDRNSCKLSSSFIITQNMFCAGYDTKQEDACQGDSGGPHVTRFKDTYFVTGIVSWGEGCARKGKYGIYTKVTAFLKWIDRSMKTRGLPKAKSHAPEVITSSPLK
T1 sequence (P00742 41-179 partner limits assumed): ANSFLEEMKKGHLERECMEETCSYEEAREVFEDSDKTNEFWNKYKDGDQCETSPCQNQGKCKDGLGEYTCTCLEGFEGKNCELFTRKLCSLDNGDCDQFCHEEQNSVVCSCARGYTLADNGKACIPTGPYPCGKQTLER
Procedure: Determination of Human FXa Inhibitory Effect (IC50 Value)
To each well of a 96-well microplate, 10 μl of 5% DMSO solutions of each test compound, the concentrations of which were appropriately prepared stepwise, 40 μl of Tris buffer (100 mM Tris, 200 mM potassium chloride, 0.2% BSA, pH 7.4) and 10 μl of 0.0625 U/ml human FXa (Enzyme Research Laboratories, Inc. dissolved and diluted with Tris buffer) were added, and 40 μl of a 750 μM aqueous solution of S-2222 (Chromogenix Co.) was added. Absorbance at 405 nm was measured for 10 minutes at room temperature to determine an increase in absorbance (ΔOD/min). As a control, Tris buffer was used in place of the test compound.
The rate of inhibition (%) at the final concentration of the test compound calculated using the following equation and the final concentration of the test compound were plotted as ordinate and as abscissa, respectively on a logarithmic normal probability paper, to determine the 50% inhibition dose (IC^50 value). Rate of inhibition (%)=(1−(ΔOD/min) of test compound[…](ΔOD/min) of control)×100

Human blood plasma = experiment: Determination of prothrombin time (PT); format: biochemical; conditions: concentration at which PT is doubled, Thromboplastin C Plus, linear regression
Procedure: Determination of Prothrombin Time (PT)
Human blood plasma (50 μl) was added to 50 μl of each test compound dissolved in 4% DMSO/physiological saline, and the mixture was pre-incubated at 37° C. for 1 minute. Subsequently, 100 μl of 0.5 U/ml Thromboplastin C Plus (Dade Behring) was added to initiate the reaction. The coagulation time was measured using Amelung KC-10A micro coagulometer (MC Medical). As a control, 4% DMSO/physiological saline was used in place of the test compound. The concentration at which PT is doubled (PTCT2) was calculated by linear regression.

Row | AUC [1] [ng·h/mL] | IC50 (human FXa) [nM] | Compound | PTCT2 (Human blood plasma) [µM]
1 | 880 | 3 | O=CN1CC[C@H](NC(=O)C(=O)Nc2ccc(Cl)cn2)[C@H](NC(=O)c2nc3c(s2)COCC3)C1 [Example 38, N^1-(5-chloropyridin-2-yl)-N^2-((3R,4S)-3-{[(6,7-dihydro-4H-pyrano[4,3-d]thiazol-2-yl)carbonyl]amino}-1-formylpiperidin-4-yl)ethanediamide] | 0.50
2 | 899 | 0.9 | CN1CCc2nc(C(=O)N[C@@H]3CN(C=O)CC[C@@H]3NC(=O)C(=O)Nc3ccc(Cl)s3)sc2C1 [Example 23, N^1-(5-chlorothiophen-2-yl)-N^2-((3R,4S)-1-formyl-3-{[(5-methyl-4,5,6,7-tetrahydrothiazolo[5,4-c]pyridin-2-yl)carbonyl]amino}piperidin-4-yl)ethanediamide hydrochloride] | 0.14

More lines, now with the values behind:

Row | Compound | AUC [1] [ng·h/mL] | IC50 (human FXa) [nM] | PTCT2 (Human blood plasma) [µM]
3 | CC(=O)N1CC[C@H](NC(=O)C(=O)Nc2ccc(Cl)cn2)[C@H](NC(=O)c2nc3c(s2)CN(C)CC3)C1 [Example 9, N^1-((3R,4S)-1-acetyl-3-{[(5-methyl-4,5,6,7-tetrahydrothiazolo[5,4-c]pyridin-2-yl)carbonyl]amino}piperidin-4-yl)-N^2-(5-chloropyridin-2-yl)ethanediamide hydrochloride] | 482 | 1.6 | 0.25
4 | COCC(=O)N1CC[C@H](NC(=O)C(=O)Nc2ccc(Cl)cn2)[C@H](NC(=O)c2nc3c(s2)CN(C)CC3)C1.Cl [Compound A, N^1-(5-chloropyridin-2-yl)-N^2-((3R,4S)-1-(2-methoxyacetyl)-3-{[(5-methyl-4,5,6,7-tetrahydrothiazolo[5,4-c]pyridin-2-yl)carbonyl]amino}piperidin-4-yl)ethanediamide hydrochloride, reference compound] | 157 | 2.3 | 0.37
5 | CN1CCc2nc(C(=O)N[C@@H]3CN(C=O)CC[C@@H]3NC(=O)C(=O)Nc3ccc(Cl)cn3)sc2C1 [Example 8, N^1-(5-chloropyridin-2-yl)-N^2-((3R,4S)-1-formyl-3-{[(5-methyl-4,5,6,7-tetrahydrothiazolo[5,4-c]pyridin-2-yl)carbonyl]amino}piperidin-4-yl)ethanediamide hydrochloride] | 826 | 2.2 | 0.26
